Where a SMILES comes first, the peptide text is derived from it.
COC(=O)[C@H](Cc1ccccc1)NC(=O)[C@@H](N)CC(=O)O (H-Asp-Phe-OMe)
solubility (mole fraction)
Settings	in ethanol	in methanol	in water
278.15 K	3.16e-05	0.000532	0.000338
283.15 K	4.53e-05	0.000593	0.000408
288.15 K	6.19e-05	0.000665	0.000483
293.15 K	8.48e-05	0.00074	0.000581
298.15 K	0.000113	0.000832	0.000701
303.15 K	0.000144	0.000939	0.000836
308.15 K	0.000187	0.00107	0.00102
313.15 K	0.000236	0.0012	0.00123
318.15 K	0.000291	0.00136	0.0015
323.15 K	0.000347	0.00155	0.00182
328.15 K	0.000418	0.00175	0.00224
333.15 K	0.000493	0.002	0.00274
